Measured values reported in patent US9157074B2, “Beta-amylase, gene coding therefor and manufacturing method thereof” (Amano Enzyme Inc., priority 2008, dated 2015).
Entries after “also recorded” stand apart in the source; their conditions may differ.

B1: β-amylase: purified β-amylase from Bacillus flexus APC9451, amino acid sequence SEQ ID NO: 7; final HiLoad 16/60 Superdex200 stage (protein, listed as Bacillus flexus)
chain: MYKPIKKFASLIVLLSFVAAFILGPTNSQAAVNGQSFNSNYKTYLMAPLKKVTEFTTWEAFENDLRKAKQNGFYAVTVDFWWGDMEKNGDQQFDFSYAQRFAQAARNAGIKMVPIISTHQCGGNVGDDCNTPLPSWIWNTKTDDSLYFKSETGTVNKETVNPLATDVITKQYGELYTAFAQALAPYKDVIPKVYLSGGPAGELRYPSYTAADGTGYPSRGKFQAYTDFAKSKFQMWAVNKYGSLAGVNQAWGLSLTSTSQILPPSDGNQFLKDGYNTNYGKDFLEWYQGVLQDHAKRIGALAHQAFDPVFNVPVGAKIAGIHWQYNNPTMPHAAEKPAGYNNYSTLLDSFKTAKLDLTFTCLEMVDSGTYPEYSMPKTLVKEVASLANAKGIVLNGENALSIGSEEQYKRAAEMTFNYNFAGFTLLRFYDVINNSTRMSQFNQHLNIKPVAQTMVVKNAPTSSGESVYIVGDRPELGQWDTIAYPIKLSYNSTYGDWRGTVNFPADRSVQFKAIIKRSDGSLKSWQPTQQYWNVPGTPTTYTNNW

Key:
β-amylase [1] = test: Effect of metal ion and inhibitor on β-amylase activity; assay type: biochemical, Bacillus flexus; settings: 30° C., 30 minutes; for Relative activity: 1 mM metal ion or inhibitor, pH 5.0, not added = 100%; for effect on activity: 1 mM
Procedure: (§1) The activity of β-amylase was measured as follows. To 0.5 ml of 0.1M phosphate-HCl buffer solution (pH 5.0) containing 1% soluble starch and 10 mM calcium acetate, 0.5 ml of enzyme solution was added. The mixture was incubated at 37° C. for 30 minutes. Then, 2.5 ml of DNS solution (0.2% DNS, 80 mM NaOH, 0.2 M potassium sodium tartrate tetrahydrate) was added to the mixture so as to stop the reaction. After the reaction was stopped, the reaction mixture was boiled for five minutes, the absorbance was measured at the wavelength of 530 nm. The enzyme amount when the absorbance measured at the wavelength of 530 nm is 1 is defined as one unit.
To β-amylase in 0.1 M acetic acid-hydrochloric acid buffer solution (pH 5.0) containing 10 mM calcium acetate, 1 mM of various metal ions or inhibitor were added, respectively, treated at 30° C. for 30 minutes, and then the activity was measured by the above-mentioned β-amylase activity. The values were shown as the relative activity when the metal ion and inhibitor were not added is defined as 100%. The activity was inhibited by Cu ion, iodine acetic acid, PCMB, and SDS.

β-amylase [2] = test: Substrate specificity of β-amylase; assay type: biochemical, Bacillus flexus; settings: for Relative activity (%): activity with respect to soluble starch = 100%, oligosaccharides 0.5%, 0.1 u/ml enzyme, 37° C., 30 minutes, maltose by HPLC; for substrate specificity (words): relative to soluble starch = 100%
Procedure: as §1
The β-amylase activity with respect to each substrate was examined. The values are shown as the relative activity when the activity with respect to soluble starch is defined as 100%. As to oligosaccharides, the production amount of maltose was examined by the below-mentioned quantification amount of maltose. After 0.1 u/ml enzyme was reacted to 0.5% of each maltooligosaccharide at 37° C. for 30 minutes, quantification of maltose was carried out by HPLC (Aminex carbohydrate HPX-42A, BIO-RAD). A production amount of maltose when the substrate is soluble starch is defined as 100%, the relative activity with respect to each maltooligosaccharide was calculated from the production amount of maltose.
The values were shown as the relative activity when a production amount of maltose with respect to soluble starch is defined as 100%.

[3] = Optimum reaction temperature of β-amylase; assay type: biochemical; settings: pH 5.0, reaction temperatures 25 to 70° C.
Procedure: as §1
According to the above-mentioned β-amylase activity measurement method, reaction was carried out at the reaction temperatures of 25° C., 37° C., 50° C., 55° C., 60° C., 65° C., and 70° C. […] The optimum reaction temperature was around 55° C. (FIG. 1).

[4] = Isoelectric point by isoelectric point precipitation using Ampholine; assay type: physicochemical; settings: 600V, 4° C., 48 hours
Procedure: When the isoelectric point of the present enzyme was measured by isoelectric point precipitation using Ampholine (electrification at 600V, at 4° C., for 48 hours), it was 9.7.

pH stability = assay type: physicochemical; settings: pH 4 to 9, 30° C., three hours
Procedure: as §1
β-amylase was treated in each of the buffer solutions (citric acid buffer: pH2, pH3, and pH4, Britton-Robinson buffer: pH4, pH5, pH6, pH7, pH8, pH9, pH10, and pH11) at 30° C. for three house, and then the activity was measured by the above-mentioned β-amylase activity measurement method. […] The […] was 4 to 9 (FIG. 4).

[5] = β-amylase specific activity at each purification stage; assay type: biochemical
Procedure: as §1
Bacillus flexus APC9451 was cultured with shaking at 30° C. for three days by using a liquid medium having the compositions shown in Table 1. The obtained culture supernatant solution was four-times concentrated by using an UF membrane (AIP-0013, Asahi Kasei Corporation), and then ammonium sulfate was added thereto so as to obtain 60% saturation concentration. The precipitate fraction was dissolved again in 20 mM acetic acid buffer solution (pH 5.5). Then, to the mixture solution, ammonium sulfate was added so as to obtain 20% saturation concentration. […]

[6] = Thermostability (remaining activity after heat treatment); assay type: physicochemical
Procedure: as §1
The enzyme solution (20 u/ml) was subjected to heat treatment in 0.1 M acetic acid-hydrochloric acid buffer solution (pH 5.0) containing 10 mM calcium acetate at each temperature of 37° C., 50° C., 55° C., 60° C., 65° C. and 70° C. for 10 minutes, and then the remaining activity was measured by the above-mentioned β-amylase activity measurement method. The values are shown as the remaining activity when the remaining activity with no heat treatment is defined as 100%. […] (FIG. 3).

[7] = Optimum reaction pH of β-amylase; assay type: biochemical; settings: 1% soluble starch, 37° C., 10 minutes; citric acid buffer pH2-4, Britton-Robinson buffer pH4-11
Procedure: For the substrate, 1% soluble starch was used, and the measurement was carried out in each buffer solution (citric acid buffer: pH2, pH3, and pH4, Britton-Robinson buffer: pH4, pH5, pH6, pH7, pH8, pH9, pH10, and pH11) at 37° C. for 10 minutes. […] The optimum reaction pH was about 8.0 (FIG. 2).

Molecule | Relative activity (β-amylase [1]) | Relative activity (%) (β-amylase [2]) | further results
[Ca+2] [Ca^2+] | 130% |  | 
[Cu+2] [Cu^2+] | 46% |  | effect on activity (β-amylase [1]): inhibited
[Fe+2] [Fe^2+] | 105% |  | Relative activity (β-amylase [1]; listed as Fe^3+): 113%
[K+] [K^+] | 96% |  | 
OC[C@H]1O[C@H](O[C@H]2[C@H](O)[C@@H](O)[C@@H](O[C@H]3[C@H](O)[C@@H](O)[C@@H](O[C@H]4[C@H](O)[C@@H](O)C(O)O[C@@H]4CO)O[C@@H]3CO)O[C@@H]2CO)[C@H](O)[C@@H](O)[C@@H]1O (stereo partly shown) [Maltotetraose] |  | 75% | 
[Mg+2] [Mg^2+] | 103% |  | 
[Mn+2] [Mn^2+] | 222% |  | 
CCN1C(=O)C=CC1=O [N-ethylmaleimide] | 93% |  | 
[Na+] [Na^+] | 88% |  | 
O=C(O)c1cc[c]([Hg][Cl])cc1 [PCMB] | 25% |  | effect on activity (β-amylase [1]): inhibited
CCCCCCCCCCCCOS(=O)(=O)[O-].[Na+] [SDS] | 37% |  | effect on activity (β-amylase [1]): inhibited
[Zn+2] [Zn^2+] | 96% |  | 
O=C(O)CI [monoiodoacetic acid] | 14% |  | effect on activity (β-amylase [1]): inhibited
OC[C@H]1O[C@@H]2O[C@H]3[C@H](O)[C@@H](O)[C@@H](O[C@H]4[C@H](O)[C@@H](O)[C@@H](O[C@H]5[C@H](O)[C@@H](O)[C@@H](O[C@H]6[C@H](O)[C@@H](O)[C@@H](O[C@H]7[C@H](O)[C@@H](O)[C@@H](O[C@H]1[C@H](O)[C@H]2O)O[C@@H]7CO)O[C@@H]6CO)O[C@@H]5CO)O[C@@H]4CO)O[C@@H]3CO [α-cyclodextrin] |  | 0% | 
OC[C@H]1O[C@@H]2O[C@H]3[C@H](O)[C@@H](O)[C@@H](O[C@H]4[C@H](O)[C@@H](O)[C@@H](O[C@H]5[C@H](O)[C@@H](O)[C@@H](O[C@H]6[C@H](O)[C@@H](O)[C@@H](O[C@H]7[C@H](O)[C@@H](O)[C@@H](O[C@H]8[C@H](O)[C@@H](O)[C@@H](O[C@H]1[C@H](O)[C@H]2O)O[C@@H]8CO)O[C@@H]7CO)O[C@@H]6CO)O[C@@H]5CO)O[C@@H]4CO)O[C@@H]3CO [β-cyclodextrin] |  | 1.4% | 
OC[C@H]1O[C@@H]2O[C@H]3[C@H](O)[C@@H](O)[C@@H](O[C@H]4[C@H](O)[C@@H](O)[C@@H](O[C@H]5[C@H](O)[C@@H](O)[C@@H](O[C@H]6[C@H](O)[C@@H](O)[C@@H](O[C@H]7[C@H](O)[C@@H](O)[C@@H](O[C@H]8[C@H](O)[C@@H](O)[C@@H](O[C@H]9[C@H](O)[C@@H](O)[C@@H](O[C@H]1[C@H](O)[C@H]2O)O[C@@H]9CO)O[C@@H]8CO)O[C@@H]7CO)O[C@@H]6CO)O[C@@H]5CO)O[C@@H]4CO)O[C@@H]3CO [γ-cyclodextrin-, γ-cyclodextrin] |  | 0.6% | 
Maltoheptaose |  | 111% | 
Maltohexaose |  | 131% | 
Maltopentaose |  | 102% | 
Maltotriose |  | 0% | substrate specificity (words) (β-amylase [2]): did not act; also recorded: does not substantially act
cyclodextrin |  |  | substrate specificity (words) (β-amylase [2]): does not substantially act; substrate specificity (words) (β-amylase [2]; listed as Cyclodextrin): almost broken down
B1 |  |  | optimum reaction temperature [3]: around 55 °C; optimum reaction temperature ([3]; listed as the present enzyme): about 55 °C; isoelectric point [4]: 9.7; activity with respect to the maximum activity after treatment (pH stability): ≥ 70%; specific activity in the final stage as compared with that of the crude enzyme ([5]; final purification stage vs crude enzyme): 2270 times; Specific activity ([5]; purification stage of β-amylase from Bacillus flexus APC9451): 1569 u/mg; remaining activity after heat treatment ([6]; 55° C., 10 minutes, 0.1 M acetic acid-hydrochloric acid buffer pH 5.0, 10 mM calcium acetate, no heat treatment = 100%): ≥ 90%; thermostability (temperature until which stable) ([6]; pH 5.0, 10 minutes): ≤ 55 °C; optimum reaction pH [7]: about 8.0
